# Assay results as given in US20150266850A1 (E.I.DU PONT DE NEMOURS AND COMPANY, priority 2012, published 2015).
# Marks after values point to notes of the source that are not given here.
# Columns and labels:
# Type in all cases: in vivo
# [1] = tested on: Puccinia recondita f sp. tritici; test: Test B: wheat leaf rust, preventive spray on wheat seedlings, visual disease rating; details: 100 = 100% disease control; for pest or weed control at 200 ppm: 192 h
# Description: (§1) General protocol for preparing test suspensions for Tests A-E: the test compounds were first dissolved in acetone in an amount equal to 11% of the final volume and then suspended at the desired concentration (in ppm) in acetone and purified water (50/50 mix by volume) containing 250 ppm of the surfactant Trem® 014 (polyhydric alcohol esters). The resulting test suspensions were then used in Tests A-E. Spraying a 200 ppm test suspension to the point of run-off on the test plants was the equivalent of a rate of 800 g/ha.
# The test suspension was sprayed to the point of run-off on wheat seedlings. The following day the seedlings were inoculated with a spore suspension of Puccinia recondita f sp. tritici (the causal agent of wheat leaf rust) and incubated in a saturated atmosphere at 20° C. for 24 h, and then moved to a growth chamber at 20° C. for 7 days, after which time disease ratings were visually made.
# (§2) Results for Tests A-E are given in Table A. In the Table, a rating of 100 indicates 100% disease control and a rating of 0 indicates no disease control (relative to the controls). A dash (-) indicates no test results. All results are for 200 ppm except where followed by an “*”, which indicates 40 ppm or “**”, which indicates 50 ppm.
# Botrytis cinerea = test: Test E: tomato botrytis, preventive spray on tomato seedlings, visual disease rating; details: 100 = 100% disease control; for pest or weed control at 200 ppm: Botrytis cinerea, 120 h
# Description: as §1
# The test suspension was sprayed to the point of run-off on tomato seedlings. The following day the seedlings were inoculated with a spore suspension of Botrytis cinerea (the causal agent of tomato botrytis) and incubated in saturated atmosphere at 20° C. for 48 h, and then moved to a growth chamber at 27° C. for 3 additional days, after which time disease ratings were visually made.
# as §2
# [2] = tested on: Erysiphe graminis f. sp. tritici; test: Test A: wheat powdery mildew, preventive spray on wheat seedlings, visual disease rating; details: 100 = 100% disease control; for pest or weed control at 200 ppm: Blumeria graminis, 192 h
# Description: as §1
# The test suspension was sprayed to the point of run-off on wheat seedlings. The following day the seedlings were inoculated with a spore dust of Erysiphe graminis f. sp. tritici, (the causal agent of wheat powdery mildew) and incubated in a growth chamber at 20° C. for 8 days, after which time disease ratings were visually made.
# as §2
# Septoria tritici = test: Test C: wheat leaf blotch, preventive spray on wheat seedlings, visual disease rating; details: 100 = 100% disease control; for pest or weed control at 200 ppm: Zymoseptoria tritici, 504 h
# Description: as §1
# The test suspension was sprayed to the point of run-off on wheat seedlings. The following day the seedlings were inoculated with a spore suspension of Septoria tritici (the causal agent of wheat leaf blotch) and incubated in a saturated atmosphere at 24° C. for 48 h, and then moved to a growth chamber at 20° C. for 19 days, after which time disease ratings were visually made.
# as §2
# Septoria nodorum = test: Test D: wheat glume blotch, preventive spray on wheat seedlings, visual disease rating; details: 100 = 100% disease control; for pest or weed control at 200 ppm: Parastagonospora nodorum, 216 h
# Description: as §1
# The test suspension was sprayed to the point of run-off on wheat seedlings. The following day the seedlings were inoculated with a spore suspension of Septoria nodorum (the causal agent of wheat glume blotch) and incubated in a saturated atmosphere at 20° C. for 48 h, and then moved to a growth chamber at 20° C. for 7 days, after which time disease ratings were visually made.
# as §2
Structure (SMILES),Test B disease control rating ([1]; 40 ppm (*)),Test E disease control rating (Botrytis cinerea; 40 ppm (*)),Test A disease control rating ([2]; 40 ppm (*)),Test C disease control rating (Septoria tritici; 40 ppm (*)),Test D disease control rating (Septoria nodorum; 40 ppm (*)),Test B disease control rating ([1]; 200 ppm) [%],Test E disease control rating (Botrytis cinerea; 200 ppm) [%],Test A disease control rating ([2]; 200 ppm) [%],Test C disease control rating (Septoria tritici; 200 ppm) [%],Test D disease control rating (Septoria nodorum; 200 ppm) [%],other results
COC(=O)NCc1cc(-c2ccn(-c3ccc(Br)cc3Cl)n2)ccc1C [Cmpd 61],100* %,91* %,100* %,94* %,100* %,,,,,,
COC(=O)NCc1cc(-n2ccc(-c3ccc(Cl)cc3OCC#N)n2)ccc1C [Cmpd 72],100* %,0* %,93* %,90* %,100* %,,,,,,
COC(=O)NCc1cc(-c2ccn(-c3ccc(Cl)cc3F)n2)ccc1C [Cmpd 65],100* %,94* %,100* %,98* %,100* %,,,,,,
COC(=O)NCc1cc(-n2ncc(-c3ccc(I)cc3OC)[n+]2[O-])ccc1C [Compound 81],,,,,,,,,,,pest or weed control at 200 ppm ([1]; 200 ppm): 100%; pest or weed control at 200 ppm (Botrytis cinerea; 200 ppm): 67%; pest or weed control at 200 ppm ([2]; 200 ppm): 99%; pest or weed control at 200 ppm (Septoria tritici; 200 ppm): 98%; pest or weed control at 200 ppm (Septoria nodorum; 200 ppm): 100%
C#CCOc1cc(Cl)ccc1-c1ccn(-c2ccc(C)c(CNC(=O)OC)c2)n1 [Cmpd 108],,,,,,100,8,99,95,100,
"COC(=O)NCc1cc(-n2ncc(-c3ccc(OC)cc3C)n2)ccc1C [Compound 8, methyl N-[[5-[4-(4-methoxy-2-methylphenyl)-2H-1,2,3-triazol-2-yl]-2-methylphenyl]methyl]carbamate]",,,,,,,,,,,pest or weed control at 200 ppm ([1]; 200 ppm): 100%; pest or weed control at 200 ppm (Botrytis cinerea; 200 ppm): 90%; pest or weed control at 200 ppm ([2]; 200 ppm): 100%; pest or weed control at 200 ppm (Septoria tritici; 200 ppm): 100%; pest or weed control at 200 ppm (Septoria nodorum; 200 ppm): 100%
COC(=O)NCc1cc(-c2ccn(-c3ccc(OC)cc3C#N)n2)ccc1C [Cmpd 21],,,,,,100,66,96,98,100,
"COC(=O)NCc1cc(-c2ccn(-c3ccc(Cl)cc3OC)n2)ccc1C [Compound 28, methyl N-[[5-[1-(4-chloro-2-methoxyphenyl)-1H-pyrazol-3-yl]-2-methylphenyl]-methyl]carbamate]",,,,,,,,,,,pest or weed control at 200 ppm ([1]; 200 ppm): 100%; pest or weed control at 200 ppm (Botrytis cinerea; 200 ppm): 57%; pest or weed control at 200 ppm ([2]; 200 ppm): 100%; pest or weed control at 200 ppm (Septoria tritici; 200 ppm): 100%; pest or weed control at 200 ppm (Septoria nodorum; 200 ppm): 100%
CCc1cc(OC)ccc1-n1ccc(-c2ccc(C)c(CNC(=O)OC)c2)n1 [Cmpd 26],,,,,,100,31,99,100,100,
COC(=O)NCc1cc(-n2ccc(-c3ccc(C)cc3F)n2)ccc1C [Cmpd 42],100* %,65* %,100* %,99* %,100* %,,,,,,
"COC(=O)NCc1cc(-c2ccn(-c3ccc(OC)cc3Cl)n2)ccc1C [Compound 20, methyl N-[[5-[1-(2-chloro-4-methoxyphenyl)-1H-pyrazol-3-yl]-2-methylphenyl]-methyl]carbamate]",,,,,,,,,,,pest or weed control at 200 ppm ([1]; 200 ppm): 100%; pest or weed control at 200 ppm (Botrytis cinerea; 200 ppm): 0%; pest or weed control at 200 ppm ([2]; 200 ppm): 100%; pest or weed control at 200 ppm (Septoria tritici; 200 ppm): 100%; pest or weed control at 200 ppm (Septoria nodorum; 200 ppm): 100%
COC(=O)NCc1cc(-n2ccc(-c3ccc(F)cc3F)n2)ccc1C [Cmpd 30],,,,,,100,0,100,100,100,
COC(=O)NCc1cc(-n2ccc(-c3ccc(OC)cc3F)n2)ccc1C [Cmpd 9],,,,,,100,87,100,99,100,
CCOc1cc(Cl)ccc1-c1ccn(-c2ccc(C)c(CNC(=O)OC)c2)n1 [Cmpd 77],100* %,0* %,100* %,99* %,100* %,,,,,,
COC(=O)NCc1cc(-n2ccc(-c3ccc(Br)cc3OC)n2)ccc1C [Cmpd 58],100* %,26* %,100* %,96* %,100* %,,,,,,
C#CCOc1cc(OC)ccc1-c1ccn(-c2ccc(C)c(CNC(=O)OC)c2)n1 [Cmpd 51],,,,,,100,0,0,88,100,
COC(=O)NCc1cc(-c2ccn(-c3ccc(Br)cc3C#N)n2)ccc1C [Cmpd 111],,,,,,100,0,94,93,100,
COC(=O)NCc1cc(-n2ccc(-c3ccc(Br)cc3Br)n2)ccc1C [Cmpd 109],100* %,0* %,99* %,92* %,100* %,,,,,,
COC(=O)NCc1cc(-n2ccc(-c3ccc(OC)cc3O)n2)ccc1C [Cmpd 103],,,,,,100,0,48,74,100,
COC(=O)NCc1cc(-c2ccn(-c3ccc(Cl)cc3OCC#N)n2)ccc1C [Cmpd 35],,,,,,100,41,92,100,100,
COC(=O)NCc1cc(-c2ccn(-c3ccc(OC)cc3[N+](=O)[O-])n2)ccc1C [Cmpd 22],,,,,,100,85,0,100,100,
COC(=O)NCc1cc(-c2ccn(-c3ccc(N)cc3Cl)n2)ccc1C [Cmpd 90],,,,,,98,97,0,100,100,
